Results taken from ChEMBL document CHEMBL1131665, “Rapid synthesis of RGD mimetics with isoxazoline scaffolds on solid phase: identification of alphavbeta3 antagonists lead compounds” (Bioorg Med Chem Lett, 1999).

Target: Integrin alpha-V/beta-3 (Homo sapiens, UniProt P05106+P06756)
Assay: Antagonistic activity against vitronectin receptor
Format: functional

Sequence of Integrin alpha-V/beta-3 (P05106 27-788 limits assumed): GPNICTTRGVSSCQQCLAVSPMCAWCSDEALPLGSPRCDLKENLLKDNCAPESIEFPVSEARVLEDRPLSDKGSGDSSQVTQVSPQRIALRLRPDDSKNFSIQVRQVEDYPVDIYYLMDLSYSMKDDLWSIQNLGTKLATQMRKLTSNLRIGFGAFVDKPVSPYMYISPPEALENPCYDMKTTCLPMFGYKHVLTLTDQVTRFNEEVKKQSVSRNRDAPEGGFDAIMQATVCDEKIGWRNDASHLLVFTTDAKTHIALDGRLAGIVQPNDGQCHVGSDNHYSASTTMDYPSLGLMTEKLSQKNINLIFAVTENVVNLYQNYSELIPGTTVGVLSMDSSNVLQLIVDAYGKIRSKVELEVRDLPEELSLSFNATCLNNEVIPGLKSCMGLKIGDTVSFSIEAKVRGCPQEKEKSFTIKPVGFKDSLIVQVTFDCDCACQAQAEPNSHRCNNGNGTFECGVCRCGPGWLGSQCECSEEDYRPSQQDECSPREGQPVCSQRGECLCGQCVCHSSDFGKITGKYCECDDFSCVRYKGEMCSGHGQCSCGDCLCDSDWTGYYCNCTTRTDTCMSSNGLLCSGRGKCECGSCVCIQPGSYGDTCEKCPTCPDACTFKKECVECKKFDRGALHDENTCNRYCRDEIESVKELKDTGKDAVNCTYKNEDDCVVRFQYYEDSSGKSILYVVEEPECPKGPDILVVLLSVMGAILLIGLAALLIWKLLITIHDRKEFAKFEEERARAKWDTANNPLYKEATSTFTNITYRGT
Sequence of Integrin alpha-V/beta-3 (P06756 31-889 limits assumed): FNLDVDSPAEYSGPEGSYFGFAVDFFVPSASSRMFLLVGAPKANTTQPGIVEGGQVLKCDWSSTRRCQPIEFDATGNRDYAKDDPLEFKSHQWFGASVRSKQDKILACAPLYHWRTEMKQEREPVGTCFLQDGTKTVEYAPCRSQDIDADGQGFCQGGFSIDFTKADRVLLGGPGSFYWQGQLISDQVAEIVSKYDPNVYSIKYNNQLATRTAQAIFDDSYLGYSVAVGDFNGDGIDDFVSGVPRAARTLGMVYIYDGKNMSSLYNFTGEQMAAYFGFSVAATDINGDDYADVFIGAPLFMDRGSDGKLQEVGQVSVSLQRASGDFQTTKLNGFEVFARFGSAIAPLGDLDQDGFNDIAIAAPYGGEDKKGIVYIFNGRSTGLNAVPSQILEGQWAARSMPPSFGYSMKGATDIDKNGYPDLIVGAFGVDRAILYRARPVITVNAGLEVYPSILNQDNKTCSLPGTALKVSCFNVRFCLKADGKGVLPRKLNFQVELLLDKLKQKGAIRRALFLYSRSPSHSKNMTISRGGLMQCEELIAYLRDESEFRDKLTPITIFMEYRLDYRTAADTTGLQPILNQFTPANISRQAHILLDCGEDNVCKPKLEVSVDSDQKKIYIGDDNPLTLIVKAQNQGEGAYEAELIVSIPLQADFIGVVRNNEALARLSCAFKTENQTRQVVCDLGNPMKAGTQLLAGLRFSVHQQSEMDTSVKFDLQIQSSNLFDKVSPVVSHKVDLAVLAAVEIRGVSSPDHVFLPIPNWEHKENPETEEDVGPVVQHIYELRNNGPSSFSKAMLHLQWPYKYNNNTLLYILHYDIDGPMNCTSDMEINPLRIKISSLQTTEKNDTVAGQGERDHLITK
Sequence of Integrin alpha-V/beta-3 (P06756 891-1048 limits assumed): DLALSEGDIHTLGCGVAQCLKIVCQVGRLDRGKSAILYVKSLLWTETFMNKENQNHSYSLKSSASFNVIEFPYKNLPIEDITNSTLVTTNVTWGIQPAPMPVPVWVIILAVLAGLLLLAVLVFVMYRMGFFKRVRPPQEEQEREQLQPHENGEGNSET

IC50	Structure (SMILES)
140 nM	N=C(N)NCCCCC1CC(C(=O)NC[C@H](NS(=O)(=O)c2ccc([N+](=O)[O-])cc2)C(=O)O)=NO1 (stereo partly specified)
72 nM	N=C(N)NCCCC1=NOC(CC(=O)NC[C@H](NC(=O)OCc2ccccc2)C(=O)O)C1 (stereo partly specified)
180 nM	N=C(N)NCCCCC1=NOC(CC(=O)NC[C@H](NC(=O)OCc2ccccc2)C(=O)O)C1 (stereo partly specified)
12 nM	N=C(N)NCCCCC1CC(C(=O)NC[C@H](NS(=O)(=O)c2ccc(Cl)cc2)C(=O)O)=NO1 (stereo partly specified)
8 nM	N=C(N)NCCCCC1CC(C(=O)NC[C@H](NS(=O)(=O)c2ccc(-c3ccccn3)s2)C(=O)O)=NO1 (stereo partly specified)
0.7 nM	Cc1cc(C)c(S(=O)(=O)N[C@@H](CNC(=O)C2=NOC(CCCCN=C(N)N)C2)C(=O)O)c(C)c1 (stereo partly specified)
2 nM	Cc1cn(C)[n+](Cl)c1S(=O)(=O)N[C@@H](CNC(=O)C1=NOC(CCCCN=C(N)N)C1)C(=O)[O-] (stereo partly specified)
16 nM	N=C(N)NCCCCC1CC(C(=O)NC[C@H](NS(=O)(=O)c2cccc3ccccc23)C(=O)O)=NO1 (stereo partly specified)
900 nM	N=C(N)NCCC1=NOC(CC(=O)NC[C@H](NC(=O)OCc2ccccc2)C(=O)O)C1 (stereo partly specified)
2600 nM	N=C(N)NCCC1=NOC(C(=O)NC[C@H](NC(=O)OCc2ccccc2)C(=O)O)C1 (stereo partly specified)
100 nM	N=C(N)NCCCC1=NOC(CCC(=O)NC[C@H](NC(=O)OCc2ccccc2)C(=O)O)C1 (stereo partly specified)
14 nM	Cc1noc(C)c1S(=O)(=O)N[C@@H](CNC(=O)C1=NOC(CCCCN=C(N)N)C1)C(=O)O (stereo partly specified)
24 nM	N=C(N)NCCCCC1CC(C(=O)NC[C@H](NS(=O)(=O)c2cc(Cl)sc2Cl)C(=O)O)=NO1 (stereo partly specified)
4 nM	N=C(N)NCCCCC1CC(C(=O)NC[C@H](NS(=O)(=O)c2ccccc2Br)C(=O)O)=NO1 (stereo partly specified)
96 nM	Cn1ccc(S(=O)(=O)N[C@@H](CNC(=O)C2=NOC(CCCCN=C(N)N)C2)C(=O)O)n1 (stereo partly specified)
300 nM	N=C(N)NCCCCC1=NOC(CCC(=O)NC[C@H](NC(=O)OCc2ccccc2)C(=O)O)C1 (stereo partly specified)

IC50	Structure (SMILES)
12 nM	COc1ccc(S(=O)(=O)N[C@@H](CNC(=O)C2=NOC(CCCCN=C(N)N)C2)C(=O)O)cc1 (stereo partly specified)
480 nM	N=C(N)NCCC1=NOC(CCC(=O)NC[C@H](NC(=O)OCc2ccccc2)C(=O)O)C1 (stereo partly specified)
110 nM	N=C(N)NCCCC1=NOC(C(=O)NC[C@H](NC(=O)OCc2ccccc2)C(=O)O)C1 (stereo partly specified)
710 nM	N=C(N)NCCCCCC1=NOC(C(=O)NC[C@H](NC(=O)OCc2ccccc2)C(=O)O)C1 (stereo partly specified)
23 nM	N=C(N)NCCCCC1CC(C(=O)NC[C@H](NS(=O)(=O)c2cccs2)C(=O)O)=NO1 (stereo partly specified)
310 nM	N=C(N)NCC1CC(CCC(=O)NC[C@H](NC(=O)OCc2ccccc2)C(=O)O)=NO1 (stereo partly specified)
11 nM	N=C(N)NCCCCC1CC(C(=O)NC[C@H](NS(=O)(=O)c2ccccc2)C(=O)O)=NO1 (stereo partly specified)
7 nM	CN(C)c1cccc2c1ccc[n+]2S(=O)(=O)N[C@@H](CNC(=O)C1=NOC(CCCCN=C(N)N)C1)C(=O)[O-] (stereo partly specified)
66 nM	N=C(N)NCCC1CC(C(=O)NC[C@H](NC(=O)OCc2ccccc2)C(=O)O)=NO1 (stereo partly specified)
36 nM	CC(C)(C)c1ccc(S(=O)(=O)N[C@@H](CNC(=O)C2=NOC(CCCCNC(=N)N)C2)C(=O)O)cc1 (stereo partly specified)
87 nM	N=C(N)NCCC1CC(CCC(=O)NC[C@H](NC(=O)OCc2ccccc2)C(=O)O)=NO1 (stereo partly specified)
140 nM	N=C(N)NCCCC1CC(C(=O)NC[C@H](NC(=O)OCc2ccccc2)C(=O)O)=NO1 (stereo partly specified)
23 nM	N=C(N)NCCCCC1CC(C(=O)NC[C@H](NC(=O)OCc2ccccc2)C(=O)O)=NO1 (stereo partly specified)
470 nM	N=C(N)NCCCCCC1=NOC(CC(=O)NC[C@H](NC(=O)OCc2ccccc2)C(=O)O)C1 (stereo partly specified)
15 nM	N=C(N)NCCCCC1CC(C(=O)NC[C@H](NS(=O)(=O)c2ccc(F)cc2)C(=O)O)=NO1 (stereo partly specified)

Target: Integrin alpha-IIb/beta-3 (Homo sapiens, UniProt P05106+P08514)
Sequence (P05106 27-788 limits assumed): as the sequence (P05106 27-788 limits assumed) above
Sequence (P08514 32-887 limits assumed): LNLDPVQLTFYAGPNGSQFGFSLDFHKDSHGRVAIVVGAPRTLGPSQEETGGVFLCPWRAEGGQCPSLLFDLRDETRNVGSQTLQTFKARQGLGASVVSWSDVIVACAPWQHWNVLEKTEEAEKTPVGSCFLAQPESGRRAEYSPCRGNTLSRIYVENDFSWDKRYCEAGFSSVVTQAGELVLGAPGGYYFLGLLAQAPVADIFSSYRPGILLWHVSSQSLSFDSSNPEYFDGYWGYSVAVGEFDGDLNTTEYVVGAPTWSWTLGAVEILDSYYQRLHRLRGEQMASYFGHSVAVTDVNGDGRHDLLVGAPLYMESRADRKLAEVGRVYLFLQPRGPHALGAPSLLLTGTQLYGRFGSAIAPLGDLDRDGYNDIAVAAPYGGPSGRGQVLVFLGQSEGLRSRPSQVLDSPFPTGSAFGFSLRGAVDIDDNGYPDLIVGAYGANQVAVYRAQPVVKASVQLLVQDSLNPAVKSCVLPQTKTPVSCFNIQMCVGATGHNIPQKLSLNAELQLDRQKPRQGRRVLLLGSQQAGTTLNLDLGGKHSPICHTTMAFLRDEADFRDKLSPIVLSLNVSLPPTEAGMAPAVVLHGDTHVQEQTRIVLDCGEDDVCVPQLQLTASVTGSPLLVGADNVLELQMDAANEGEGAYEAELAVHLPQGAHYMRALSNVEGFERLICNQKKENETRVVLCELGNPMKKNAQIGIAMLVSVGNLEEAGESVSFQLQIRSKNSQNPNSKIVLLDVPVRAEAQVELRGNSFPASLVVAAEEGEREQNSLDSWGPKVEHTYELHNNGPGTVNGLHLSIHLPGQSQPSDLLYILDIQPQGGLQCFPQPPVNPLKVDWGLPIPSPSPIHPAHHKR
Sequence (P08514 891-1039 limits assumed): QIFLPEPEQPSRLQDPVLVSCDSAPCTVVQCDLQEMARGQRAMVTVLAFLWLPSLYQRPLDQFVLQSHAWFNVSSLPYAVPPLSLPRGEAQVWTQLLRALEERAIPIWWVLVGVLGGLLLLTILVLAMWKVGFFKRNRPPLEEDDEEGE
Assay: Antagonistic activity against fibrinogen receptor
Format: functional

IC50	Structure (SMILES)
43000 nM	N=C(N)NCCCCC1CC(C(=O)NC[C@H](NS(=O)(=O)c2ccc([N+](=O)[O-])cc2)C(=O)O)=NO1 (stereo partly specified)
12000 nM	N=C(N)NCCCC1=NOC(CC(=O)NC[C@H](NC(=O)OCc2ccccc2)C(=O)O)C1 (stereo partly specified)
800 nM	N=C(N)NCCCCC1=NOC(CC(=O)NC[C@H](NC(=O)OCc2ccccc2)C(=O)O)C1 (stereo partly specified)
2600 nM	N=C(N)NCCCCC1CC(C(=O)NC[C@H](NS(=O)(=O)c2ccc(Cl)cc2)C(=O)O)=NO1 (stereo partly specified)
690 nM	N=C(N)NCCCCC1CC(C(=O)NC[C@H](NS(=O)(=O)c2ccc(-c3ccccn3)s2)C(=O)O)=NO1 (stereo partly specified)
340 nM	Cc1cc(C)c(S(=O)(=O)N[C@@H](CNC(=O)C2=NOC(CCCCN=C(N)N)C2)C(=O)O)c(C)c1 (stereo partly specified)
220 nM	Cc1cn(C)[n+](Cl)c1S(=O)(=O)N[C@@H](CNC(=O)C1=NOC(CCCCN=C(N)N)C1)C(=O)[O-] (stereo partly specified)
3500 nM	N=C(N)NCCCCC1CC(C(=O)NC[C@H](NS(=O)(=O)c2cccc3ccccc23)C(=O)O)=NO1 (stereo partly specified)
12000 nM	N=C(N)NCCC1=NOC(CC(=O)NC[C@H](NC(=O)OCc2ccccc2)C(=O)O)C1 (stereo partly specified)
> 100000 nM	N=C(N)NCCC1=NOC(C(=O)NC[C@H](NC(=O)OCc2ccccc2)C(=O)O)C1 (stereo partly specified)
850 nM	Cc1noc(C)c1S(=O)(=O)N[C@@H](CNC(=O)C1=NOC(CCCCN=C(N)N)C1)C(=O)O (stereo partly specified)
1900 nM	N=C(N)NCCCCC1CC(C(=O)NC[C@H](NS(=O)(=O)c2cc(Cl)sc2Cl)C(=O)O)=NO1 (stereo partly specified)
170 nM	N=C(N)NCCCCC1CC(C(=O)NC[C@H](NS(=O)(=O)c2ccccc2Br)C(=O)O)=NO1 (stereo partly specified)
3600 nM	Cn1ccc(S(=O)(=O)N[C@@H](CNC(=O)C2=NOC(CCCCN=C(N)N)C2)C(=O)O)n1 (stereo partly specified)
3600 nM	N=C(N)NCCCCC1=NOC(CCC(=O)NC[C@H](NC(=O)OCc2ccccc2)C(=O)O)C1 (stereo partly specified)
460 nM	COc1ccc(S(=O)(=O)N[C@@H](CNC(=O)C2=NOC(CCCCN=C(N)N)C2)C(=O)O)cc1 (stereo partly specified)
23000 nM	N=C(N)NCCC1=NOC(CCC(=O)NC[C@H](NC(=O)OCc2ccccc2)C(=O)O)C1 (stereo partly specified)
> 100000 nM	N=C(N)NCCCC1=NOC(C(=O)NC[C@H](NC(=O)OCc2ccccc2)C(=O)O)C1 (stereo partly specified)
13000 nM	N=C(N)NCCCCCC1=NOC(C(=O)NC[C@H](NC(=O)OCc2ccccc2)C(=O)O)C1 (stereo partly specified)
360 nM	N=C(N)NCCCCC1CC(C(=O)NC[C@H](NS(=O)(=O)c2cccs2)C(=O)O)=NO1 (stereo partly specified)
55000 nM	N=C(N)NCCCCC1=NOC(C(=O)NC[C@H](NC(=O)OCc2ccccc2)C(=O)O)C1 (stereo partly specified)
> 100000 nM	N=C(N)NCC1CC(CCC(=O)NC[C@H](NC(=O)OCc2ccccc2)C(=O)O)=NO1 (stereo partly specified)
780 nM	N=C(N)NCCCCC1CC(C(=O)NC[C@H](NS(=O)(=O)c2ccccc2)C(=O)O)=NO1 (stereo partly specified)
7900 nM	CN(C)c1cccc2c1ccc[n+]2S(=O)(=O)N[C@@H](CNC(=O)C1=NOC(CCCCN=C(N)N)C1)C(=O)[O-] (stereo partly specified)
47000 nM	CC(C)(C)c1ccc(S(=O)(=O)N[C@@H](CNC(=O)C2=NOC(CCCCNC(=N)N)C2)C(=O)O)cc1 (stereo partly specified)
17000 nM	N=C(N)NCCC1CC(CCC(=O)NC[C@H](NC(=O)OCc2ccccc2)C(=O)O)=NO1 (stereo partly specified)
53000 nM	N=C(N)NCCCC1CC(C(=O)NC[C@H](NC(=O)OCc2ccccc2)C(=O)O)=NO1 (stereo partly specified)
1500 nM	N=C(N)NCCCCCC1=NOC(CC(=O)NC[C@H](NC(=O)OCc2ccccc2)C(=O)O)C1 (stereo partly specified)
1300 nM	N=C(N)NCCCCC1CC(C(=O)NC[C@H](NS(=O)(=O)c2ccc(F)cc2)C(=O)O)=NO1 (stereo partly specified)

Target: not listed separately
Assay: Antagonistic activity against Vitronectin receptor protein ( alpha v beta 3 ) by ELISA assay
Format: functional

IC50	Structure (SMILES)
81 nM	N=C(N)NCCCCC1=NOC(C(=O)NC[C@H](NC(=O)OCc2ccccc2)C(=O)O)C1 (stereo partly specified)
